Results reported in US7723388B2, “Avian appeasing pheromones to decrease stress, anxiety and aggressiveness” (priority 2002, dated 2010).

Test system: population of mites (Dermanyssus gallinae, Omithonyssus sylvianm)
Experiment: In vitro sensitivity of the mite population to mite treatments
Details: for Dose to obtain LD50 / Dose to obtain LD100: pd: prescribed dose; for Dose to obtain LD50: 50% of mites killed over 24 hours; for Dose to obtain LD100: 100% of mites killed in 24 hours; for LD 100 at the dose of the product notice: surroundings corresponding to the conditions of breeding
Procedure: Mites were also tested for during the course of this example. At day 0, the first diffusers of the avian appeasing pheromone were posed and the sampling of mites was effectuated. For the 12 samples that were taken, 5 samples permitted the identification of the species of mites in the breeding; 3 were utilized and placed in a mite culture and recuperated at the end of the internal experiment; and 4 served to test the sensitivity of parasites to the mites used.
On the 5 samples effectuated, […] samples of parasites were identified. 76% (n=86) were identified as Dermanyssus gallinae (chicken mites) and 24% (n=28) were Omithonyssus sylvianm (Northern Fowl mites).
Testing the sensitivity of the mites was next conducted. This test was performed in the population of mites with an in vitro system that verifies the sensitivity of the mite treatment utilized (Carbamate).
The parasites were thus exposed to a variety of concentrations of miticide. The dosage was determined by the value of the notice of dosage recommendation on the product.
Under experimental conditions 2 lots (T1 and T2) were subjected to the tests. The T1 lot corresponded to a universal test, which is not authorized in breeding since Ivermectine was used. Lot 2 corresponded to a test made with Amitraze.

| Compound | Dose to obtain LD50 [pd] | Dose to obtain LD100 [pd] | LD 100 at the dose of the product notice |
| --- | --- | --- | --- |
| Ivermectine | 1 | 1 | obtained with the doses prescribed |
| Cc1ccc(/N=C/N(C)/C=N/c2ccc(C)cc2C)c(C)c1 [Amitraze] | 1 | 1 | obtained with the doses prescribed |
